Measured values taken from patent publication US20050119316A1, “Semicarbazide derivatives and the use thereof as antithrombotics” (Merch Patent GmbH, priority 2002, published 2005).

Assays:
[1] = biological target: FXa (Homo sapiens, UniProt P00742); assay: Inhibition of factor Xa (Table 1, affinity to receptors); type: biochemical
Text: The inhibition of factor Xa by the compounds according to the invention and the measurement of the anticoagulant and antithrombotic activity can be determined by conventional in-vitro or in-vivo methods. A suitable method is described, for example, by J. Hauptmann et al. in Thrombosis and Haemostasis 1990, 63, 220-223.
The inhibition of factor Xa can be measured, for example, by the method of T. Hara et al. in Thromb. Haemostas. 1994, 71, 314-319.

[2] = biological target: TF/FVIIa (Homo sapiens, UniProt P08709); assay: Inhibition of TF/factor VIIa (Table 1, affinity to receptors); type: biochemical
Sequence of TF/FVIIa (P08709 213-466 limits assumed): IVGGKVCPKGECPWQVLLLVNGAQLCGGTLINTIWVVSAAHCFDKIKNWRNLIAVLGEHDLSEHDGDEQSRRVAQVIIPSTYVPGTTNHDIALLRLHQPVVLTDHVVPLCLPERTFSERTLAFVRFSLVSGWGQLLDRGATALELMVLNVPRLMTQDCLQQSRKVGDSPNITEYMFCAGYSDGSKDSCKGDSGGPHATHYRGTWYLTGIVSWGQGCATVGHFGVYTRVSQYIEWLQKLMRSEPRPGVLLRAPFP
Sequence of TF/FVIIa (P08709 61-212 partner limits assumed): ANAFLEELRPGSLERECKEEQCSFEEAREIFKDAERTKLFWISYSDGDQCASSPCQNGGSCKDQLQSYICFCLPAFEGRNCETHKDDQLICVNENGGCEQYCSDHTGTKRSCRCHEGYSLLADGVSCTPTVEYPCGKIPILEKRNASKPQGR
Sequence of TF/FVIIa (P13726 33-295 partner): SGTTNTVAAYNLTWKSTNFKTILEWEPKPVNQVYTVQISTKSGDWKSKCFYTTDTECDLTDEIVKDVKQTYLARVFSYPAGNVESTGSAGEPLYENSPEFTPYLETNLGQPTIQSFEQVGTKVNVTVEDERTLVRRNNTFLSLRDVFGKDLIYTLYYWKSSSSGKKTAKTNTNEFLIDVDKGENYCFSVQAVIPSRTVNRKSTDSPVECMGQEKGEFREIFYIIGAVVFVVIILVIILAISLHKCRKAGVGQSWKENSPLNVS
Text: The inhibition of factor VIIa by the compounds according to the invention and the measurement of the anticoagulant and antithrombotic activity can be determined by conventional in-vitro or in-vivo methods. A conventional method for the measurement of the inhibition of factor VIIa is described, for example, by H. F. Ronning et al. in Thrombosis Research 1996, 84, 73-81.

Sequence of FXa (P00742 235-488 limits assumed): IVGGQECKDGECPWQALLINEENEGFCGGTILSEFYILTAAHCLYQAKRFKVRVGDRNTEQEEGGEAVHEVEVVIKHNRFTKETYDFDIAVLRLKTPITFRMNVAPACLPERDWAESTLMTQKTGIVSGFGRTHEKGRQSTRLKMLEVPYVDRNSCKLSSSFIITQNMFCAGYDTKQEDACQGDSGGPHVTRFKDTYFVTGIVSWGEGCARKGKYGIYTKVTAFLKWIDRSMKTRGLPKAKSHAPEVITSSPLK
Sequence of FXa (P00742 41-179 partner limits assumed): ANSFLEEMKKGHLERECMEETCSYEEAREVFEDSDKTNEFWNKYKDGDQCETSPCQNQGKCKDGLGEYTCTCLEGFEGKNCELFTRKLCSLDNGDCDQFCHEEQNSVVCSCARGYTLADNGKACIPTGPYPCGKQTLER

IC50 [1] [µM]	IC50 [2] [µM]	SMILES
0.028	0.012	CS(=O)(=O)c1ccccc1-c1ccc(NC(=O)NN(c2ccccc2)c2cccc(C(=N)N)c2)c(F)c1 [Compound 9, 1-(3-amidinophenyl)-4-(3-fluoro-2′-methylsulfonylbiphenyl-4-yl)-1-phenylsemicarbazide]
3.8	8.8	CS(=O)(=O)c1ccccc1-c1ccc(NC(=O)NN(c2ccccc2)c2cccc(C(N)=NO)c2)c(F)c1 [Compound 8, 1-(3-N-hydroxyamidinophenyl)-4-(3-fluoro-2′-methylsulfonylbiphenyl-4-yl)-1-phenylsemicarbazide]
2.4	4.2	CS(=O)(=O)c1ccccc1-c1ccc(NC(=O)NN(c2ccccc2)c2cccc(CN)c2)c(F)c1 [Compound 10, 1-(3-aminomethylphenyl)-4-(3-fluoro-2′-methylsulfonylbiphenyl-4-yl)-1-phenylsemicarbazide]
